In ChEMBL document CHEMBL5325413, “Optimization of BAX trigger site activator BTSA1 with improved antitumor potency and in vitro ADMET properties” (Eur J Med Chem, 2023):
Activity calls are given as the source filed them. The rule behind the calls is not given here.

How the values were obtained:
HCT-116 = assay: Antiproliferative activity against human HCT-116 cells assessed as cell growth inhibition incubated for 72 hrs by MTT assay; assay type: functional
A549 [1] = assay: Antiproliferative activity against human A549 cells assessed as cell growth inhibition incubated for 72 hrs by MTT assay; assay type: functional
PC-3 = assay: Antiproliferative activity against human PC-3 cells assessed as cell growth inhibition incubated for 72 hrs by MTT assay; assay type: functional
A549 [2] = assay: Induction of apoptosis in human A549 cells assessed as total apoptotic cells at 10 uM incubated for 48 hrs by Annexin V-FITC/PI staining based flow cytometry analysis (reference value: 2.86%); assay type: functional
A549 [3] = assay: Induction of apoptosis in human A549 cells assessed as live cells at 10 uM incubated for 48 hrs by Annexin V-FITC/PI staining based flow cytometry analysis (reference value: 96.4%); assay type: functional
A549 [4] = assay: Induction of apoptosis in human A549 cells assessed as dead cells at 10 uM incubated for 48 hrs by Annexin V-FITC/PI staining based flow cytometry analysis (reference value: 0.739%); assay type: functional
A549 [5] = assay: Induction of apoptosis in human A549 cells assessed as late apoptotic cells at 10 uM incubated for 48 hrs by Annexin V-FITC/PI staining based flow cytometry analysis (reference value: 2.15%); assay type: functional
A549 [6] = assay: Induction of apoptosis in human A549 cells assessed as early apoptotic cells at 10 uM incubated for 48 hrs by Annexin V-FITC/PI staining based flow cytometry analysis (reference value: 0.708%); assay type: functional
A549 [7] = assay: Induction of apoptosis in human A549 cells assessed as upregulation of BAX translocation at 20 uM incubated for 24 hrs by Western blot analysis; assay type: functional, cell-based

Row | Structure (SMILES) | GI50 (HCT-116) [µM] | GI50 (A549 [1]) [µM] | GI50 (PC-3) [µM] | Activity (A549 [2]) [%] | Activity (A549 [3]) [%] | Activity (A549 [4]) [%] | Activity (A549 [5]) [%] | Activity (A549 [6]) [%] | Activity (A549 [7])
1 | O=C1CCN(C(=O)c2ccc(N3N=C(c4ccccc4)/C(=N/Nc4ccccc4)C3=O)cc2)CC1 | > 50 | > 50 | > 50 |  |  |  |  |  | 
2 | CN(C)C1CCN(C(=O)c2ccc(N3N=C(c4ccccc4)/C(=N/Nc4ccc(OCc5ccccc5)cc4)C3=O)cc2)CC1 | > 20 | 5.03 | > 20 |  |  |  |  |  | 
3 | CS(=O)(=O)N1CCN(C(=O)c2ccc(N3N=C(c4ccccc4)/C(=N/Nc4ccccc4)C3=O)cc2)CC1 | > 50 | > 50 | > 50 |  |  |  |  |  | 
4 | CN(C)C1CCN(C(=O)c2ccc(N3N=C(c4ccccc4)C(=C4CCN(C(=O)c5cscn5)CC4)C3=O)cc2)CC1 | 11.7 | 16.6 | 16.8 |  |  |  |  |  | 
5 | CN1CCC(NC(=O)c2cccc(N3N=C(c4ccccc4)/C(=N/Nc4ccccc4)C3=O)c2)CC1 | 5.83 | 9.06 | 15 |  |  |  |  |  | 
6 | CN1CCC(NC(=O)c2ccc(N3N=C(c4ccccc4)/C(=N/Nc4ccccc4)C3=O)cc2)CC1 | 4.13 | 4.44 | 6.45 |  |  |  |  |  | 
7 | O=C(c1ccc(N2N=C(c3ccccc3)/C(=N\Nc3ccccc3)C2=O)cc1)N1CCC(N2CCCCC2)CC1 | 8.75 | 14.5 | 12.8 |  |  |  |  |  | 
8 | CN(C)C1CCN(C(=O)c2ccc(N3N=C(c4ccccc4)C(=C4CCN(C(=O)c5ccc(O)cc5)CC4)C3=O)cc2)CC1 | 34.7 | 33.6 | > 50 |  |  |  |  |  | 
9 | CC1CCN(C(=O)c2cccc(N3N=C(c4ccccc4)/C(=N/Nc4ccccc4)C3=O)c2)CC1 | 3.44 | 2.72 | 2.41 |  |  |  |  |  | 
10 | CC(C)Oc1cc(F)ccc1N/N=C1\C(=O)N(c2ccc(C(=O)N3CCC(N(C)C)CC3)cc2)N=C1c1ccccc1 | 2.2 | 6.13 | 2.42 |  |  |  |  |  | 
11 | CN(C)CCCNC(=O)c1ccc(N2N=C(c3ccccc3)/C(=N/Nc3ccccc3)C2=O)cc1 | 2.14 | 3.32 | 3.76 |  |  |  |  |  | 
12 | CN(C)C1CCN(C(=O)c2ccc(N3N=C(c4ccccc4)/C(=N/Nc4cc(C(F)(F)F)cc(C(F)(F)F)c4)C3=O)cc2)CC1 | 1.76 | 4.54 | 1.15 | 44.8 | 54.3 | 0.996 | 10.1 | 34.7 | 
13 | CN(C)C1CCN(C(=O)c2ccc(N3N=C(c4ccccc4)C(=C4CCN(C(=O)c5cc6cc(Cl)ccc6[nH]5)CC4)C3=O)cc2)CC1 | > 50 | 43.6 | > 50 |  |  |  |  |  | 
14 | CC(C)(C)OC(=O)N1CCC2(CC1)CN(C(=O)c1ccc(N3N=C(c4ccccc4)/C(=N\Nc4ccccc4)C3=O)cc1)C2 | 17.7 | 25.5 | 19.9 |  |  |  |  |  | 
15 | CN(C)C1CCN(C(=O)c2ccc(N3N=C(c4ccccc4)/C(=N/Nc4ccc(O)cc4)C3=O)cc2)CC1 | 2.67 | 2.19 | 3.04 | 76.2 | 21.5 | 2.33 | 16.2 | 60 | Active
16 | CN(C)C1CCN(C(=O)c2ccc(N3N=C(c4ccccc4)/C(=N/Nc4cccnc4)C3=O)cc2)CC1 | 3.88 | 4.22 | 5.17 |  |  |  |  |  | 
17 | O=C(c1ccc(N2N=C(c3ccccc3)/C(=N/Nc3ccccc3)C2=O)cc1)N1CCN(C2COC2)CC1 | > 50 | > 50 | > 50 |  |  |  |  |  | 
18 | CN(C)C1CCN(C(=O)c2ccc(N3N=C(c4ccccc4)/C(=C/Nc4ccccc4)C3=O)cc2)CC1 | 14.8 | > 20 | > 20 |  |  |  |  |  | 

Row | Structure (SMILES) | GI50 (HCT-116) [µM] | GI50 (A549 [1]) [µM] | GI50 (PC-3) [µM] | Activity (A549 [2]) [%] | Activity (A549 [3]) [%] | Activity (A549 [4]) [%] | Activity (A549 [5]) [%] | Activity (A549 [6]) [%] | Activity (A549 [7])
19 | CC1=NN(c2ccc(C(=O)N3CCC(N(C)C)CC3)cc2)C(=O)/C1=N\Nc1ccccc1 | 3.42 | 8.99 | 4.94 | 13.3 | 82.4 | 4.37 | 1.57 | 11.7 | 
20 | O=C(c1ccc(N2N=C(c3ccccc3)/C(=N/Nc3ccccc3)C2=O)cc1)N1CCC2(CC1)CNC2 | 4.12 | 4.69 | 5.6 |  |  |  |  |  | 
21 | CN(C)C1CCN(C(=O)c2ccc(N3N=C(c4ccccc4)/C(=C/NCc4ccccc4)C3=O)cc2)CC1 | > 20 | > 20 | > 20 |  |  |  |  |  | 
22 | CN(C)C1CCN(C(=O)c2ccc(N3N=C(c4ccccc4)/C(=N/Nc4ccc5ccccc5c4)C3=O)cc2)CC1 | 2.18 | 4.52 | 4.78 |  |  |  |  |  | 
23 | CN(C)C(=O)c1ccc(N2N=C(c3ccccc3)/C(=N/Nc3ccccc3)C2=O)cc1 | > 50 | > 50 | > 50 |  |  |  |  |  | 
24 | O=C(c1ccc(N2N=C(c3ccccc3)/C(=N/Nc3ccccc3)C2=O)cc1)N1CCCCC1 | > 50 | > 50 | > 50 |  |  |  |  |  | 
25 | O=C(NCc1ccncc1)c1ccc(N2N=C(c3ccccc3)/C(=N/Nc3ccccc3)C2=O)cc1 | 17.5 | 11.5 | 12.6 |  |  |  |  |  | 
26 | CN(C)C1CCN(C(=O)c2ccc(N3N=C(C4CC4)/C(=N/Nc4ccccc4)C3=O)cc2)CC1 | 4.38 | 2.15 | 7.14 |  |  |  |  |  | 
27 | O=C(c1cscn1)N1CCC(C2=NN(c3nc(-c4ccccc4)cs3)C(=O)/C2=N\Nc2nccs2)CC1 | > 50 | > 50 | > 50 |  |  |  |  |  | 
28 | O=C(c1ccc(N2N=C(c3ccccc3)/C(=N/Nc3ccccc3)C2=O)cc1)N1CCNCC1 | > 50 | > 50 | > 50 |  |  |  |  |  | 
29 | COc1cc(N/N=C2\C(=O)N(c3ccc(C(=O)N4CCC(N(C)C)CC4)cc3)N=C2c2ccccc2)ccc1F | 3.37 | 2.79 | 3.94 | 61.8 | 35.4 | 2.85 | 22.2 | 39.6 | Active
30 | COc1cc(N/N=C2\C(=O)N(c3ccc(C(=O)N4CCC(N(C)C)CC4)cc3)N=C2c2ccccc2)cc(OC)c1OC | 5.51 | 2.9 | 5.77 |  |  |  |  |  | 
31 | CN(C)C1CCN(C(=O)c2ccc(N3N=C(c4ccccc4)CC3=O)cc2)CC1 | > 50 | > 50 | > 50 |  |  |  |  |  | 
32 | CN1CCN(C(=O)c2ccc(N3N=C(c4ccccc4)/C(=N/Nc4ccccc4)C3=O)cc2)CC1 | 21.9 | 22.9 | > 50 |  |  |  |  |  | 
33 | CN(C)C1CCN(C(=O)c2cccc(N3N=C(c4ccccc4)/C(=N/Nc4ccccc4)C3=O)c2)CC1 | 5.23 | 2.68 | 10.7 |  |  |  |  |  | 
34 | N[C@@H]1CCCN(C(=O)c2ccc(N3N=C(c4ccccc4)/C(=N/Nc4ccccc4)C3=O)cc2)C1 | 2.96 | 8.38 | 5.39 | 11.8 | 6.22 | 0.814 | 3.21 | 8.59 | 
35 | O=C1/C(=N\Nc2ccccc2)C(c2ccccc2)=NN1c1ccccc1 | > 50 | > 50 | > 50 |  |  |  |  |  | 
36 | O=C(c1ccccc1)N1CCC(C2=NN(c3nc(-c4ccccc4)cs3)C(=O)/C2=N\Nc2nccs2)CC1 | > 50 | 28.7 | > 50 |  |  |  |  |  | 
